In the supplement of paper PMC7840683:
± gives the standard deviation of the averaged measurements.

Tested on: HepaRG
Test: LDH release cytotoxicity, % of total lysis control; higher = more cytotoxic
Conditions: 48 h
Outline: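 Single-lot HepaRG cells on collagen I-coated 96-well plates were exposed for 48 h in duplicate, in serum-free induction medium with 0.5% DMSO, to eight-point half-log series (test chemicals top 100 µM). Total lysis wells received 0.1% Triton X, and LDH leakage into 50 µL spent medium was read as resorufin fluorescence (CytoTox-ONE, Tecan Safire). Percent cytotoxicity was normalized to on-plate vehicle and total lysis controls and averaged over the duplicates.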

SMILES | LDH release cytotoxicity (0.03162 µM) | LDH release cytotoxicity (0.1 µM) | LDH release cytotoxicity (0.3162278 µM) | LDH release cytotoxicity (1 µM) | LDH release cytotoxicity (3.16228 µM) | LDH release cytotoxicity (10 µM) | LDH release cytotoxicity (31.6228 µM) | LDH release cytotoxicity (100 µM) | other results
CCOC(=O)CCC(=O)OCC [Diethyl butanedioate] | -2.6 ± 0.22% | -1.75 ± 0.66% | -2.02 ± 0.1% | -1.99 ± 0.076% | -0.438 ± 0.84% | -0.384 ± 0.28% | 16 ± 3.3% | 83.2 ± 4.8% | –
NC(=O)NO [Hydroxyurea] | -2.94 ± 1.1% | -1.59 ± 1.4% | -2.4 ± 0.64% | -2.62 ± 0.18% | -1.83 ± 0.11% | -1.79 ± 0.38% | -0.278 ± 0.73% | 2.82 ± 1.5% | –
O=c1ccc2ccccc2o1 [Coumarin] | -1.09 ± 0.14% | -0.766 ± 1.4% | -0.788 ± 0.28% | -1.992 ± 0.0095% | -1.12 ± 0.68% | -2.38 ± 1.8% | -0.666 ± 0.38% | 6.17 ± 9.2% | –
COc1ccc2c(c1)c(CC(=O)O)c(C)n2C(=O)c1ccc(Cl)cc1 [1-(p-Chlorobenzoyl)-5-methoxy-2-methyl-Indole-3-acetic acid] | -0.418 ± 0.2% | -0.408 ± 0.23% | -0.399 ± 0.2% | 0.493 ± 0.042% | 0.818 ± 0.36% | 0.284 ± 0.81% | 0.637 ± 0.53% | 1.2 ± 0.22% | –
ClC(Cl)=C(c1ccc(Cl)cc1)c1ccc(Cl)cc1 [p,p'-DDE] | -0.311 ± 0.4% | -0.017 ± 0.96% | -0.636 ± 0.036% | -0.675 ± 0.2% | 0.0542 ± 0.64% | -0.0981 ± 0.32% | 0.0466 ± 1% | 0.471 ± 0.17% | –
O=C(Nc1ccccc1-c1ccc(Cl)cc1)c1cccnc1Cl [Boscalid] | – | – | – | – | – | – | – | – | LDH release cytotoxicity (0.0332039 µM): -0.385 ± 0.58%; LDH release cytotoxicity (0.105 µM): -0.471 ± 1.4%; LDH release cytotoxicity (0.332039 µM): -0.417 ± 1.1%; LDH release cytotoxicity (1.05 µM): -1.35 ± 1.3%; LDH release cytotoxicity (3.32039 µM): -1.2 ± 0.15%; LDH release cytotoxicity (10.5 µM): -0.348 ± 0.85%; LDH release cytotoxicity (33.2039 µM): -0.586 ± 0.92%; LDH release cytotoxicity (105 µM): 0.89 ± 1.2%
OC1CCCCC1 [Cyclohexanol] | -1.14 ± 0.82% | -1.56 ± 0.45% | -2.24 ± 0.84% | -1.92 ± 0.44% | -1.56 ± 0.67% | -0.208 ± 0.47% | -0.773 ± 0.11% | -0.073 ± 0.72% | –
CN1C(=O)CCC1c1cccnc1 (configuration not stated) [Cotinine] | -0.994 ± 0.49% | -2.34 ± 0.73% | -0.492 ± 0.14% | -1.31 ± 0.42% | -0.499 ± 0.41% | -0.978 ± 0.13% | -0.74 ± 0.22% | 0.597 ± 0.61% | –
COP(=O)(OC)C(O)C(Cl)(Cl)Cl (configuration not stated) [Trichlorfon] | 0.0437 ± 1.6% | -1.39 ± 0.081% | -0.758 ± 0.2% | -1.43 ± 0.39% | 19.7 ± 0.21% | 73.1 ± 2.5% | 76.8 ± 2.2% | 76.7 ± 1.5% | –
COc1cc(C(C)C)c2c(c1)S(=O)(=O)N(COc1cc(=O)n3cccc(OCCN4CCCCC4)c3n1)C2=O | – | – | – | – | – | – | – | – | LDH release cytotoxicity (0.0079057 µM): 0.0307 ± 1.5%; LDH release cytotoxicity (0.025 µM): 0.0794 ± 0.093%; LDH release cytotoxicity (0.0790569 µM): 0.357 ± 0.16%; LDH release cytotoxicity (0.25 µM): -0.592 ± 0.34%; LDH release cytotoxicity (0.790569 µM): -0.444 ± 0.69%; LDH release cytotoxicity (2.5 µM): -0.335 ± 0.28%; LDH release cytotoxicity (7.90569 µM): -0.231 ± 0.07%; LDH release cytotoxicity (25 µM): 14.2 ± 0.87%
CC1(c2ccc(Oc3ccccc3)cc2)OC(=O)N(Nc2ccccc2)C1=O (configuration not stated) [Famoxadone] | – | – | – | – | – | – | – | – | LDH release cytotoxicity (0.0317809 µM): -0.255 ± 0.56%; LDH release cytotoxicity (0.1005 µM): -1.03 ± 0.34%; LDH release cytotoxicity (0.317809 µM): -0.879 ± 1.4%; LDH release cytotoxicity (1.005 µM): -1.52 ± 0.023%; LDH release cytotoxicity (3.17809 µM): -2.56 ± 0.49%; LDH release cytotoxicity (10.05 µM): 10.7 ± 2.7%; LDH release cytotoxicity (31.7809 µM): 18.1 ± 3.1%; LDH release cytotoxicity (100.5 µM): 64.5 ± 2.4%
CCCCC(CC)COC(=O)CCCCCCCCC(=O)OCC(CC)CCCC (configuration not stated) [Bis(2-ethylhexyl) decanedioate] | -11.5 ± 0.13% | -10.5 ± 0.46% | -10.7 ± 0.93% | -10.2 ± 0.19% | -10.2 ± 0.27% | -10.1 ± 1.7% | -9.5 ± 0.95% | -8.97 ± 0.81% | –
O=C(O)[C@H](O)[C@@H](O)C(=O)O [L-Tartaric acid] | -3.55 ± 0.17% | -2.52 ± 1.6% | -2.17 ± 1.1% | -2.97 ± 1.1% | -2.2 ± 0.7% | -0.465 ± 0.18% | 1.18 ± 0.94% | 6.93 ± 0.79% | –
CCOC(=O)C(O)(c1ccc(Cl)cc1)c1ccc(Cl)cc1 [Chlorobenzilate] | -0.592 ± 1.7% | -1.28 ± 2.1% | -1.55 ± 0.35% | -2.17 ± 0.12% | -2.04 ± 1.4% | -1.17 ± 0.5% | -0.669 ± 0.95% | 3.46 ± 1.6% | –
C/C=C/c1ccc(OC)cc1 [(E)-Anethole] | -0.814 ± 0.42% | -0.865 ± 0.97% | -1.3 ± 0.57% | -0.855 ± 0.66% | -1.25 ± 0.25% | -0.44 ± 0.067% | -0.316 ± 0.29% | 1.16 ± 1% | –
CC1=C2CC3C(CC=C4CC(O)CCC43C)C2CCC12OC1CC(C)CNC1C2C (configuration not stated) [Cyclopamine] | – | – | – | – | – | – | – | – | LDH release cytotoxicity (0.015811 µM): -1.27 ± 1.2%; LDH release cytotoxicity (0.05 µM): -3.64 ± 1.3%; LDH release cytotoxicity (0.158114 µM): -4.31 ± 0.75%; LDH release cytotoxicity (0.5 µM): -4.01 ± 0.28%; LDH release cytotoxicity (1.58114 µM): -4.1 ± 0.11%; LDH release cytotoxicity (5 µM): -3.94 ± 0.67%; LDH release cytotoxicity (15.8114 µM): -2.45 ± 0.84%; LDH release cytotoxicity (50 µM): 0.363 ± 0.014%
COP(=S)(OC)SCN1C(=O)c2ccccc2C1=O [Phosmet] | -1.04 ± 0.14% | -1.58 ± 0.89% | -0.933 ± 0.42% | -1.6 ± 0.93% | -1.56 ± 0.51% | -1.14 ± 0.52% | -1.65 ± 0.99% | 0.331 ± 0.7% | –
O=c1n(Cl)c(=O)n(Cl)c(=O)n1Cl [Symclosene] | -1.22 ± 0.62% | -0.82 ± 0.92% | -0.254 ± 0.19% | -0.453 ± 0.22% | 0.284 ± 0.16% | 1.48 ± 1.4% | 0.324 ± 1.8% | 2.44 ± 2% | –
COC(=O)NS(=O)(=O)c1ccc(N)cc1 [Asulam] | -0.269 ± 0.97% | -1.42 ± 0.1% | -0.821 ± 0.14% | -0.262 ± 0.22% | -1.05 ± 0.18% | -0.725 ± 0.87% | -0.233 ± 0.19% | 0.635 ± 1% | –
